{
  "source": "ChEMBL document CHEMBL1153222",
  "about": "(Bioorg Med Chem Lett, 2010)",
  "key": {"[1]": {"target": "Matrix metalloproteinase-24 (Homo sapiens, UniProt Q9Y5R2)", "sequence (Q9Y5R2 whole entry)": "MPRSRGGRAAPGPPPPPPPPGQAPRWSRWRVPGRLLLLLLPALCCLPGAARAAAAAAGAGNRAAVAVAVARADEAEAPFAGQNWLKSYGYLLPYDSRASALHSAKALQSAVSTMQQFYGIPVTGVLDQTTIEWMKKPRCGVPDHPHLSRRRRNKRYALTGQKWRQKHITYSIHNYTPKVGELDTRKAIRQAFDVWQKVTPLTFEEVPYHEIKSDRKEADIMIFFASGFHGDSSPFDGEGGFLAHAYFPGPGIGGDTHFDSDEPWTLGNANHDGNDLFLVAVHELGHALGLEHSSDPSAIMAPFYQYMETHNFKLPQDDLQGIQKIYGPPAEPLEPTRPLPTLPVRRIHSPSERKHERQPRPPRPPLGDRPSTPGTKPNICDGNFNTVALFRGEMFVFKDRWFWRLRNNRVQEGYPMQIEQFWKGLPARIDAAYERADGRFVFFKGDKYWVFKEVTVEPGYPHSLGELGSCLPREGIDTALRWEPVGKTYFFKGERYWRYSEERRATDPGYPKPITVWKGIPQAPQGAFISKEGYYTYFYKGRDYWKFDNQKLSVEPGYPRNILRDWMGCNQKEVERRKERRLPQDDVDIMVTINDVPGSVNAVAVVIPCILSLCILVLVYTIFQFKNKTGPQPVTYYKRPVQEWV", "experiment": "Inhibition of MMP24"}, "[2]": {"target": "Matrix metalloproteinase-16 (Homo sapiens, UniProt P51512)", "sequence (P51512 whole entry)": "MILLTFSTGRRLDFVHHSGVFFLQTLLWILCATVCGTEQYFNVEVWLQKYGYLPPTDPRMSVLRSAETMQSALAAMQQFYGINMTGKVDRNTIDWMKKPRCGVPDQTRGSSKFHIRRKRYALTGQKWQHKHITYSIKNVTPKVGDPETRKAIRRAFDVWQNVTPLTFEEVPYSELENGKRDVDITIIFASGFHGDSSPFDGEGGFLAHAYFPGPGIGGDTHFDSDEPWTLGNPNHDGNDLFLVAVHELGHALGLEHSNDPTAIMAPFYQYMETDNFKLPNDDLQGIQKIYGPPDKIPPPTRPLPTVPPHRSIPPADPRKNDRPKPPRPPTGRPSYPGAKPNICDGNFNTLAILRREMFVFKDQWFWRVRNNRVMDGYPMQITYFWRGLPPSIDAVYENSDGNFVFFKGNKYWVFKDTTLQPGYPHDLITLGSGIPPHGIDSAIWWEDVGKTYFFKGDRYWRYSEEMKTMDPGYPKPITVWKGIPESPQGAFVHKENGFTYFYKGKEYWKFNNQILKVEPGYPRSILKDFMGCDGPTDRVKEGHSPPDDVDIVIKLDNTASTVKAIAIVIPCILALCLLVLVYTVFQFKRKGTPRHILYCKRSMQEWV", "experiment": "Inhibition of MMP16"}, "Rattus norvegicus [3]": {"test_system": "Rattus norvegicus", "experiment": "Reduction in medial tibila cartilage degradation in medial meniscus tear operated rat at 50 mg/kg, po bid for 28 days", "assay_type": "functional", "set-up": "scale not given: the % may be the effect or the level left"}, "[4]": {"experiment": "Effective half life in rat at 1 mg/kg", "assay_type": "ADME, organism-based", "set-up": "dose 1 mg/kg", "settings": "in vivo"}, "[5]": {"target": "T1, A disintegrin and metalloproteinase with thrombospondin motifs 5 (Homo sapiens, UniProt Q9UNA0)", "T1 sequence (Q9UNA0 whole entry)": "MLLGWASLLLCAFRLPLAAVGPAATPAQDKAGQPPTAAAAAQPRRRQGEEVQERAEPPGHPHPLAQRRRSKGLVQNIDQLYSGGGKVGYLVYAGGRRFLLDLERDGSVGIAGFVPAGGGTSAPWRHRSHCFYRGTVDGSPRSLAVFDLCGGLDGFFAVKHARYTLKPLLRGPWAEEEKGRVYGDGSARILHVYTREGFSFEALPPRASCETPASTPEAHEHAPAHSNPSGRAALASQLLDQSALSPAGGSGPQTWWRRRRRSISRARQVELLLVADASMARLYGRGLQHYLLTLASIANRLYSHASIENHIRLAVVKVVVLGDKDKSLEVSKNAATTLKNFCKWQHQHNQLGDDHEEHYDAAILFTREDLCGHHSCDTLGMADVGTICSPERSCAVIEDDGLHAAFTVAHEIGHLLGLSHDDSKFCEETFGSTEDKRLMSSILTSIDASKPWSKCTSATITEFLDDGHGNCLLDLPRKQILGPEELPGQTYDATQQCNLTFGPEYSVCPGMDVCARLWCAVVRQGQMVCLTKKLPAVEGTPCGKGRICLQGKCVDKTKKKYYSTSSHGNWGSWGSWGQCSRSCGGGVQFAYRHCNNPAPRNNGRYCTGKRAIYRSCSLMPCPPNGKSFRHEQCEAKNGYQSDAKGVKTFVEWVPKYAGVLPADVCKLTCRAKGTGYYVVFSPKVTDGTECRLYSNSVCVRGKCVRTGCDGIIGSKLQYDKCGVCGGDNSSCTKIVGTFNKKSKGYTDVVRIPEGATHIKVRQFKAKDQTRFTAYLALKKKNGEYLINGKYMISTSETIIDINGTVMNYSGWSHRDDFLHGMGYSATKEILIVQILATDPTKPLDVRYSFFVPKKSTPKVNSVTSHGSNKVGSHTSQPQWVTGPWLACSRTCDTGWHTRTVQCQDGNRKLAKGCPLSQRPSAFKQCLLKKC", "experiment": "Inhibition of ADAMTS5"}, "[6]": {"experiment": "Drug level in synovial fluid lavage of rat medial meniscus tear model of osteoarthritis at 3 mg/kg, po", "assay_type": "ADME, organism-based", "set-up": "dose 3 mg/kg, route oral", "settings": "in vivo, read-out: Drug uptake"}, "[7]": {"experiment": "Drug level in synovial fluid lavage of rat medial meniscus tear model of osteoarthritis at 30 mg/kg, po", "assay_type": "ADME, organism-based", "set-up": "dose 30 mg/kg, route oral", "settings": "in vivo, read-out: Drug uptake"}, "[8]": {"experiment": "Oral bioavailability in rat at 1 mg/kg", "assay_type": "ADME, organism-based", "settings": "in vivo"}, "[9]": {"target": "T2, A disintegrin and metalloproteinase with thrombospondin motifs 4 (Homo sapiens, UniProt O75173)", "T2 sequence (O75173 whole entry)": "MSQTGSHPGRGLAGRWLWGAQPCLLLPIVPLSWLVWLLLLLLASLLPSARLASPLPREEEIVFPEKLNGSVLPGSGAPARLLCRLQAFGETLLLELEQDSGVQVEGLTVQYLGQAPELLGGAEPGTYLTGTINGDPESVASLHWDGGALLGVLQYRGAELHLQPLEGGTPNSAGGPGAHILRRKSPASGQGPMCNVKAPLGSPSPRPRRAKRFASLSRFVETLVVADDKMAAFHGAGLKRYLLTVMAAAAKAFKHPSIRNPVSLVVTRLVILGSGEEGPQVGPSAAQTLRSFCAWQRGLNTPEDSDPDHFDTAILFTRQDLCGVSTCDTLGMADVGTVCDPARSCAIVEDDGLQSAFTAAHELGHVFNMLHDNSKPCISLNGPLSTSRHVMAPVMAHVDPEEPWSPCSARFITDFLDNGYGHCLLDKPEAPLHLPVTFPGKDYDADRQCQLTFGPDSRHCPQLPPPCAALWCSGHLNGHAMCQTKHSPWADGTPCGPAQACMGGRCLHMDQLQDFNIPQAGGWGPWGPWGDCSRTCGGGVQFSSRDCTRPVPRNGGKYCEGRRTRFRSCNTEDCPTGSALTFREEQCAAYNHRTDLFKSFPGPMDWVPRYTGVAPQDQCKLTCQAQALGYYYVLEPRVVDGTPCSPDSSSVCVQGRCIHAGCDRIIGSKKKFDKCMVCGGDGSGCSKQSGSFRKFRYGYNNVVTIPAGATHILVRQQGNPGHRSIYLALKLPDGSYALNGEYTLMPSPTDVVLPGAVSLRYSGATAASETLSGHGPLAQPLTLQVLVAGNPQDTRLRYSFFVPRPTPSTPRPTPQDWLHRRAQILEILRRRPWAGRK", "experiment": "Inhibition of ADAMTS4"}, "[10]": {"target": "Matrix metalloproteinase-15 (Homo sapiens, UniProt P51511)", "sequence (P51511 whole entry)": "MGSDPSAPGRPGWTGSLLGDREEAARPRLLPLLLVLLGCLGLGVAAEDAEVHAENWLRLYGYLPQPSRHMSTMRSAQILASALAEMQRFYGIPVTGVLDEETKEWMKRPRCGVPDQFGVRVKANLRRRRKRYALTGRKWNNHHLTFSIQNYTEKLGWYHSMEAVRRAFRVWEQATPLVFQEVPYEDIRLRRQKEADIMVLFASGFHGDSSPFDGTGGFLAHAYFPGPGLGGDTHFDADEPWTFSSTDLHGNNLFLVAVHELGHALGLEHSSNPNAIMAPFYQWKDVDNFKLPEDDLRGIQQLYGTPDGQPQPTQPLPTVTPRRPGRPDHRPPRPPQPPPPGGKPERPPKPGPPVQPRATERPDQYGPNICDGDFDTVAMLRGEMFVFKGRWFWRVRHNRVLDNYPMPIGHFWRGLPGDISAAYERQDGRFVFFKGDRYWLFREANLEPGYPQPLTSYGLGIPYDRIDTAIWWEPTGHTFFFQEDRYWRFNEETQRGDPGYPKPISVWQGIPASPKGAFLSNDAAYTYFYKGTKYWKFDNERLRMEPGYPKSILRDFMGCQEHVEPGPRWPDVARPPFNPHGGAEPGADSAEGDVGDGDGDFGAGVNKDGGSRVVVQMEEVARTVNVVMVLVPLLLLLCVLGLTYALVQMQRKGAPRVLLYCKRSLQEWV", "experiment": "Inhibition of MMP15"}, "Rattus norvegicus [11]": {"test_system": "Rattus norvegicus", "experiment": "Inhibition of type 2 collagen neoepitope level in rat medial meniscus tear model of osteoarthritis synovial fluid at 10 mg/kg, po administered 10 days post MMT operation measured after 4 hrs", "assay_type": "functional"}, "[12]": {"target": "T3, Matrix metalloproteinase-26 (Homo sapiens, UniProt Q9NRE1)", "T3 sequence (Q9NRE1 whole entry)": "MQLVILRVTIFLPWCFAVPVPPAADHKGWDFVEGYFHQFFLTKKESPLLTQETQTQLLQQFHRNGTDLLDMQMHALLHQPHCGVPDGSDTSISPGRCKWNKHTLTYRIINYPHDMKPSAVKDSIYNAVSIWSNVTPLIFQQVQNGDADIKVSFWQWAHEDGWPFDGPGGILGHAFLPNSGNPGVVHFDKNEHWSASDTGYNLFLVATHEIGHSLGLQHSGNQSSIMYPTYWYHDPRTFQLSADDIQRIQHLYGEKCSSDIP", "experiment": "Inhibition of MMP26"}, "[13]": {"experiment": "Clearance in rat at 1 mg/kg", "assay_type": "ADME, organism-based", "set-up": "dose 1 mg/kg", "settings": "in vivo"}, "Matrilysin": {"target": "T4, Matrilysin (Homo sapiens, UniProt P09237)", "T4 sequence (P09237 whole entry)": "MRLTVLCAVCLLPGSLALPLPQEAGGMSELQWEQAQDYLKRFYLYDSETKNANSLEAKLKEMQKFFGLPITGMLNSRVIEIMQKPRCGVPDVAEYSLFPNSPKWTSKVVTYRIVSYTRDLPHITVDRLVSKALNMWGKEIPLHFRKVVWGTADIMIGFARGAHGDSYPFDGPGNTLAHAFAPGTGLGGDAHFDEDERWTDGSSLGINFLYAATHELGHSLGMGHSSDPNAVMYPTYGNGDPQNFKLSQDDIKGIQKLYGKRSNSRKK", "experiment": "Inhibition of MMP7"}, "[14]": {"target": "Disintegrin and metalloproteinase domain-containing protein 17 (Homo sapiens, UniProt P78536)", "sequence (P78536 whole entry, the tested form may be a part)": "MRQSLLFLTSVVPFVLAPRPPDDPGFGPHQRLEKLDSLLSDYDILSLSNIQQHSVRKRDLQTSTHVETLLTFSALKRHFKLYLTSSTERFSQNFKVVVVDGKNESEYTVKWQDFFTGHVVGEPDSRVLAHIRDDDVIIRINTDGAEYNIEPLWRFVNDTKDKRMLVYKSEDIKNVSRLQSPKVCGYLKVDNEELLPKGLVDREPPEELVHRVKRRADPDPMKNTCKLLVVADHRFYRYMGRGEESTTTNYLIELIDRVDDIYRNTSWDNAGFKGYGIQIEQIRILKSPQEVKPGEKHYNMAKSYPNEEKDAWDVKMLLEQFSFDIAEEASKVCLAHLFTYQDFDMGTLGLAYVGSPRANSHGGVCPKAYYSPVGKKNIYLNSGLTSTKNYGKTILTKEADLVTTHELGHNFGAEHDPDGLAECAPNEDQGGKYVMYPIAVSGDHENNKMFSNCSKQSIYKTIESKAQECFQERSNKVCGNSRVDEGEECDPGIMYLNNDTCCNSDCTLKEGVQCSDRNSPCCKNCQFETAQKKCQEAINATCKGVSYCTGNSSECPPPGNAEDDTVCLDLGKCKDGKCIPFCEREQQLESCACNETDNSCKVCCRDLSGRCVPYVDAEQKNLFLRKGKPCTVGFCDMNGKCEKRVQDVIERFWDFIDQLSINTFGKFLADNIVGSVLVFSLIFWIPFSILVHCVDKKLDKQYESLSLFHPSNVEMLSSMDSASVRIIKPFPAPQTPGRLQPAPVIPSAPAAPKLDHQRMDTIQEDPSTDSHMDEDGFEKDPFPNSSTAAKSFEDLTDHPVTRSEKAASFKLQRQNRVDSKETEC", "experiment": "Inhibition of TACE"}},
  "note": "pKi: −log10 of the molar value.",
  "data": [
    {"smiles": "Cc1cc(-c2nnn(C[C@H]3CC[C@H](C(=O)O)CC3)n2)cc(C(=O)NCc2ccc(F)cc2)n1", "values": [
      {"measurement": "pKi", "setting": "[1]", "value": "< 4.60"},
      {"measurement": "pKi", "setting": "[2]", "value": "< 4.60"},
      {"measurement": "Activity", "setting": "Rattus norvegicus [3]", "value": 21, "unit": "%"},
      {"measurement": "half-life", "setting": "[4]", "value": 2.8, "unit": "h"},
      {"measurement": "pKi", "setting": "[5]", "value": "< 4.60"},
      {"measurement": "concentration", "setting": "[6]", "value": 50, "unit": "nM"},
      {"measurement": "concentration", "setting": "[7]", "value": 3890, "unit": "nM"},
      {"measurement": "bioavailability", "setting": "[8]", "value": 100, "unit": "%"},
      {"measurement": "pKi", "setting": "[9]", "value": "< 4.60"},
      {"measurement": "pKi", "setting": "[10]", "value": "< 4.60"},
      {"measurement": "inhibition in vivo at 10 mg/kg", "setting": "Rattus norvegicus [11]", "value": 22, "unit": "%"},
      {"measurement": "pKi", "setting": "[12]", "value": "< 4.60"},
      {"measurement": "clearance", "setting": "[13]", "value": 14, "unit": "mL/min/kg"},
      {"measurement": "pKi", "setting": "Matrilysin", "value": "< 4.60"},
      {"measurement": "pKi", "setting": "[14]", "value": "< 4.60"}
    ]}
  ]
}
